The target in this test is BTK (Homo sapiens (Human), UniProt Q06187). Put plainly: Btk kinase assay (HTRF). The format is biochemical. Particulars: [ATP]=80 μM, BTK=3.4 nM; read-out: BTK Inhibition. Here is the method:
Btk Kinase Assay and Other Kinases Assay Btk kinase activity was determined using a homogenous time resolved fluorescence (HTRF) methodology. Measurements were performed in a reaction volume of 15 μL using 384-well assay plates. Kinase enzyme, inhibitor, ATP and 1 μM peptide substrate were incubated in a reaction buffer compose of Hepes 50 mM (pH7.0), NaN3 0.02%, BSA 0.01%, Orthocanadate 0.1 mM. […] For each compound, enzyme activity as measured at various concentrations of compound, Negative control reactions were performed in the absence of inhibitor in two replicates and eight no enzyme controls were used to determine baseline fluorescence levels.
Background: TR-FRET usually uses a lanthanide donor and a delayed reading to cut background.
BTK, sequence (Q06187 whole entry, species assumed): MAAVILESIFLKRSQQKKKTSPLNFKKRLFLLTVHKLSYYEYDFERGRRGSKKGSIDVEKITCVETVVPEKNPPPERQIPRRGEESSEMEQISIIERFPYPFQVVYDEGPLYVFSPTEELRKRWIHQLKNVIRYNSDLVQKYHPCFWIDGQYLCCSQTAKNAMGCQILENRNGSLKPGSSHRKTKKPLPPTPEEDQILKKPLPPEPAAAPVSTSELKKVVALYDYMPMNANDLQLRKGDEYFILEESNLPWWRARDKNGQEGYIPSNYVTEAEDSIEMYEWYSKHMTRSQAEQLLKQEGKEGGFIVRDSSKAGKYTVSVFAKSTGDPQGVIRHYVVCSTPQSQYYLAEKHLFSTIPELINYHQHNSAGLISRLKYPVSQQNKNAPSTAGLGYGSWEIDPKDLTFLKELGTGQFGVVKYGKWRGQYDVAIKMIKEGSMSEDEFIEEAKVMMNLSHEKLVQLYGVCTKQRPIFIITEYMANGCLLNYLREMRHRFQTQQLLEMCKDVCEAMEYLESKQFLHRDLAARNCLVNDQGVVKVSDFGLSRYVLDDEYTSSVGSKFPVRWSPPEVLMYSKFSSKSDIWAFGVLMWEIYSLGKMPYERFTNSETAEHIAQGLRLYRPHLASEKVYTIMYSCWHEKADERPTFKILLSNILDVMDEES
For the compound `C=CC(=O)N1CCc2c(c(-c3ccc(Oc4cccc(OC)c4F)cc3)nn2[C@@H]2CCN(C(=O)C=C)C2)C1` [Compound 46, (R)-1-(3-(5-acryloyl-3-(4-(2-fluoro-3-methoxyphenoxy)phenyl)-4,5,6,7-tetrahydro-1H-pyrazolo[4,3-c]pyridin-1-yl)pyrrolidin-1-yl)prop-2-en-1-one], the IC50 is more than 10000 nM.
The value for `C=CC(=O)N1CC[C@@H](n2nc(-c3ccc(Oc4cccc(C)c4F)cc3)c3cnccc32)C1` [Compound 47, (R)-1-(3-(3-(4-(2-fluoro-3-methylphenoxy)phenyl)-1H-pyrazolo[4,3-c]pyridin-1-yl)pyrrolidin-1-yl)prop-2-en-1-one] was less than 10 nM; that for `C=CC(=O)N1CCC[C@@H](n2nc(-c3ccc(Oc4cccc(C)c4F)cc3)c3cnccc32)C1` [Compound 48, (R)-1-(3-(3-(4-(2-fluoro-3-methylphenoxy)phenyl)-1H-pyrazolo[4,3-c]pyridin-1-yl)piperidin-1-yl)prop-2-en-1-one] was 10 to 100 nM; that for `C=CC(=O)N1CC[C@@H](n2nc(-c3ccc(Oc4cccc(F)c4OC)cc3)c3cnccc32)C1` [Compound 49, (R)-1-(3-(3-(4-(3-fluoro-2-methoxyphenoxy)phenyl)-1H-pyrazolo[4,3-c]pyridin-1-yl)pyrrolidin-1-yl)prop-2-en-1-one] was 10 to 100 nM.
Then `C=CC(=O)N1CCC[C@@H](n2nc(-c3ccc(Oc4cccc(F)c4OC)cc3)c3cnccc32)C1` [Compound 50, (R)-1-(3-(3-(4-(3-fluoro-2-methoxyphenoxy)phenyl)-1H-pyrazolo[4,3-c]pyridin-1-yl)piperidin-1-yl)prop-2-en-1-one], with 10 to 100 nM; and `C=CC(=O)N1CCC[C@@H](n2nc(-c3ccc(Oc4ccccc4)c(F)c3)c3cnccc32)C1` [Compound 51, (R)-1-(3-(3-(3-fluoro-4-phenoxyphenyl)-1H-pyrazolo[4,3-c]pyridin-1-yl)piperidin-1-yl)prop-2-en-1-one], with 10 to 100 nM; and `C=CC(=O)N1CC(n2nc(-c3ccc(Oc4ccccc4)cc3)c3cnccc32)C1` [Compound 52, 1-(3-(3-(4-phenoxyphenyl)-1H-pyrazolo[4,3-c]pyridin-1-yl)azetidin-1-yl)prop-2-en-1-one], with 10 to 100 nM.
The value for `C=CC(=O)N1CCCC(Cn2nc(-c3ccc(Oc4ccccc4)cc3)c3cnccc32)C1` (centres unmarked) [Compound 53, 1-(3-((3-(4-phenoxyphenyl)-1H-pyrazolo[4,3-c]pyridin-1-yl)methyl)piperidin-1-yl)prop-2-en-1-one] was 10 to 100 nM; that for `C=CC(=O)N1CC[C@@H](n2nc(-c3ccc(Oc4ccccc4)cc3)c3c(N)cccc32)C1` [Compound 54, (R)-1-(3-(4-amino-3-(4-phenoxyphenyl)-1H-indazol-1-yl)pyrrolidin-1-yl)prop-2-en-1-one] was 10 to 100 nM; that for `C=CC(=O)N1CCC[C@@H](n2nc(-c3ccc(Oc4ccccc4)cc3)c3c(N)cccc32)C1` [Compound 55, (R)-1-(3-(4-amino-3-(4-phenoxyphenyl)-1H-indazol-1-yl)piperidin-1-yl)prop-2-en-1-one] was 10 to 100 nM.
With `C=CC(=O)N1CCC[C@@H](n2nc(-c3ccc(Oc4cccc(Cl)c4C)cc3)c3cnccc32)C1` [Compound 56, (R)-1-(3-(3-(4-(3-chloro-2-methylphenoxy)phenyl)-1H-pyrazolo[4,3-c]pyridin-1-yl)piperidin-1-yl)prop-2-en-1-one], the IC50 lay within 10 to 100 nM.
The value for `C=CC(=O)N1CCC[C@@H](n2nc(-c3ccc(Oc4cccc(OC)c4C)cc3)c3cnccc32)C1` [Compound 57, (R)-1-(3-(3-(4-(3-methoxy-2-methylphenoxy)phenyl)-1H-pyrazolo[4,3-c]pyridin-1-yl)piperidin-1-yl)prop-2-en-1-one] was 10 to 100 nM; that for `C=CC(=O)N1CC[C@@H](n2nc(-c3ccc(Oc4cccc(OC)c4C)cc3)c3cnccc32)C1` [Compound 59, (R)-1-(3-(3-(4-(3-methoxy-2-methylphenoxy)phenyl)-1H-pyrazolo[4,3-c]pyridin-1-yl)pyrrolidin-1-yl)prop-2-en-1-one] was 10 to 100 nM.
Then `C=CC(=O)N1CC[C@@H](n2nc(-c3ccc(Oc4cccc(Cl)c4C)cc3)c3cnccc32)C1` [Compound 60, (R)-1-(3-(3-(4-(3-chloro-2-methylphenoxy)phenyl)-1H-pyrazolo[4,3-c]pyridin-1-yl)pyrrolidin-1-yl)prop-2-en-1-one], with 10 to 100 nM; and `C=CC(=O)N1CCC[C@@H](n2nc(-c3ccc(Oc4cccc(OC)c4)cc3)c3cnccc32)C1` [Compound 65, (R)-1-(3-(3-(4-(3-methoxyphenoxy)phenyl)-1H-pyrazolo[4,3-c]pyridin-1-yl)piperidin-1-yl)prop-2-en-1-one], with 10 to 100 nM.
Then `C=CC(=O)N1CC[C@@H](n2nc(-c3ccc(Oc4ccccc4)cc3)c3cncc(F)c32)C1` [Compound 66], with less than 10 nM; and `C=CC(=O)N1CC[C@@H](n2nc(-c3ccc(Oc4cccc(OC)c4F)cc3)c3cncc(C(F)F)c32)C1` [Compound 67, (R)-1-(3-(7-(difluoromethyl)-3-(4-(2-fluoro-3-melhoxyphenoxy)phenyl)-1H-pyrazolo[4,3-c]pyridin-1-yl)pyrrolidin-1-yl)prop-2-en-1-one], with less than 10 nM; and `C=CC(=O)N1CC[C@@H](n2nc(-c3ccc(Oc4cccc(OC)c4Cl)cc3)c3cncc(F)c32)C1` [Compound 68, (R)-1-(3-(3-(4-(2-chloro-3-methoxyphenoxy)phenyl)-7-fluoro-1H-pyrazolo [4,3-c]pyridin-1-yl)pyrrolidin-1-yl)prop-2-en-1-one], with less than 10 nM.
As for `C=CC(=O)N1CCC[C@@H](n2nc(-c3ccc(Oc4cccc(OC)c4F)cc3)c3cncc(F)c32)C1` [Compound 70, (R)-1-(3-(7-fluoro-3-(4-(2-fluoro-3-methoxyphenoxy)phenyl)-1H-pyrazolo[4,3-c]pyridin-1-yl)piperidin-1-yl)prop-2-en-1-one], the IC50 is less than 10 nM.
Regarding `C=CC(=O)N1CCC[C@@H](n2nc(-c3ccc(Oc4cccc(OC)c4F)cc3)c3cncc(C(F)F)c32)C1` [Compound 72, (R)-1-(3-(7-(difluoromethyl)-3-(4-(2-fluoro-3-methoxyphenoxy)phenyl)-1H-pyrazolo[4,3-c]pyridin-1-yl)piperidin-1-yl)prop-2-en-1-one], the IC50 fell in the range of 10 to 100 nM.
Then `COc1cccc(Oc2ccc(-c3nn([C@@H]4CCCN(C(=O)C5CC6(C5)CN(S(=O)(=O)c5ccc(C)cc5)C6)C4)c4c(OC)cncc34)cc2)c1F` [Compound 74, (R)-(3-(3-(4-(2-fluoro-3-methoxyphenoxy)phenyl)-7-methoxy-1H-pyrazolo [4,3-c]pyridin-1-yl)piperidin-1-yl)(2-tosyl-2-azaspiro[3.3]heptan-6-yl)methanone], with 100 to 1000 nM; and `C=CC(=O)N1CCC[C@@H](n2nc(-c3ccc(Oc4cccc(OC)c4F)cc3)c3cncc(OCCCC)c32)C1` [Compound 76, (R)-1-(3-(7-butoxy-3-(4-(2-fluoro-3-methoxyphenoxy)phenyl)-1H-pyrazolo[4,3-c]pyridin-1-yl)piperidin-1-yl)prop-2-en-1-one], with less than 10 nM; and `C=CC(=O)N1CCC[C@@H](n2nc(-c3ccc(Oc4cccc(OC)c4F)cc3)c3cncc(O)c32)C1` [Compound 82, (R)-1-(3-(3-(4-(2-fluoro-3-methoxyphenoxy)phenyl)-7-hydroxy-1H-pyrazolo[4,3-c]pyridin-1-yl)piperidin-1-yl)prop-2-en-1-one], with less than 10 nM.
For `C=CC(=O)N1CCC[C@@H](n2nc(-c3ccc(Oc4cccc(OC)c4F)cc3)c3cncc(OCCN)c32)C1` [Compound 87, (R)-1-(3-(7-(2-aminoethoxy)-3-(4-(2-fluoro-3-methoxyphenoxy)phenyl)-1H-pyrazolo[4,3-c]pyridin-1-yl)piperidin-1-yl)prop-2-en-1-one], the IC50 lay in the range of 10 to 100 nM.
On to `C=CC(=O)N1CCC[C@@H](n2nc(-c3ccc(Oc4cccc(OC)c4OCCC)cc3)c3cncc(OCCC)c32)C1` [Compound 88, (R)-1-(3-(3-(4-(3-methoxy-2-propoxyphenoxy)phenyl)-7-propoxy-1H-pyrazolo[4,3-c]pyridin-1-yl)piperidin-1-yl)prop-2-en-1-one], for which the IC50 is 10 to 100 nM.
As for `CCC(=O)N1CCC[C@@H](n2nc(-c3ccc(Oc4cccc(OC)c4F)cc3)c3cncc(OC)c32)C1` [Compound 89, (R)-1-(3-(3-(4-(2-fluoro-3-methoxyphenoxy)phenyl)-7-methoxy-1H-pyrazolo[4,3-c]pyridin-1-yl)piperidin-1-yl)propan-1-one], the IC50 fell in the range of 100 to 1000 nM.
With `COc1cccc(Oc2ccc(-c3nn([C@@H]4CCCN(C(=O)/C(C#N)=C/C(C)(C)C)C4)c4c(OC)cncc34)cc2)c1F` [Compound 90, (R,E)-2-(3-(3-(4-(2-fluoro-3-methoxyphenoxy)phenyl)-7-methoxy-1H-pyrazolo[4,3-c]pyridin-1-yl)piperidine-1-carbonyl)-4,4-dimethylpent-2-enenitrile], the IC50 lay in the range of 10 to 100 nM.
As for `COc1cccc(Oc2ccc(-c3nn(CC4CCCN4C(=O)/C(C#N)=C/C(C)(C)C)c4c(OC)cncc34)cc2)c1F` (centres unmarked) [Compound 92, (E)-2-(2-((3-(4-(2-fluoro-3-methoxyphenoxy)phenyl)-7-methoxy-1H-pyrazolo[4,3-c]pyridin-1-yl)methyl)pyrrolidine-1-carbonyl)-4,4-dimethylpent-2-enenitrile], the IC50 lay in the range of 10 to 100 nM.
With `C=CC(=O)N1CCC[C@@H](n2nc(-c3ccc(Oc4cccc(OC)c4F)cc3)c3cncc(OCCN(C)C)c32)C1` [Compound 93, (R)-1-(3-(7-(2-(dimethylamino)ethoxy)-3-(4-(2-fluoro-3-methoxyphenoxy)phenyl)-1H-pyrazolo[4,3-c]pyridin-1-yl)piperidin-1-yl)prop-2-en-1-one], the IC50 was less than 10 nM.

The values are drawn from patent publication US10662187B2, “Bruton's tyrosine kinase inhibitors” (Zibo Biopolar Changsheng Pharmaceutical Co. Ltd., priority 2016, dated 2020).
